Test results published in patent publication US11021541B2, “Method of inhibiting the gonadotropin-releasing hormone (GnRH) receptor by administering a GHR-106 monoclonal antibody” (Vancouver Biotech Ltd., priority 2018, dated 2021).
Read-outs that look alike come from different tables or passages of the source. Where a SMILES comes first, the peptide text is derived from it. [ ]: non-standard residue; d: D form. dPhe(4-Cl) = N[C@H](Cc1ccc(Cl)cc1)C(=O)O; d2Nal = N[C@H](Cc1ccc2ccccc2c1)C(=O)O; dCit = NC(=O)NCCC[C@@H](N)C(=O)O; d3Pal = N[C@H](Cc1cccnc1)C(=O)O

Legend:
[1] = cited from earlier work; for Estimated Half Life: estimated circulation half-life
[2] = tested on: GnRH receptors expressed on the surface of cultured cancer cells (OC-3-VGH); assay: Competitive binding assay on microwells coated with OC-3-VGH cancer cells; parameters: species or system human; conditions: for competition with mGHR106 binding to OC-3-VGH coated microwells: FIG. 1A, mGHR106 0.50 or 0.25 μg/ml; for competition with hGHR106 binding to OC-3-VGH coated microwells: FIG. 1B, peptides each at 1 μg/mL
Method: Competitive binding assays were carried out according to accepted protocols, e.g. as described in U.S. Pat. No. 8,361,793. […] The N1-29 oligopeptides are derived from the N-terminal extracellular domains of GnRH receptors from each species. The amino acid sequence of each of Hu-P, Mo-P and Mu-P are shown as SEQ ID NO:1, SEQ ID NO:2 and SEQ ID NO:3 respectively in FIG. 3.
The white bars and black bars in FIG. 1A represent the different concentrations of mGHR106 (0.50 μg/ml and 0.25 μg/ml, respectively) used in each assay. […] Goat anti-human IgG-ALP (alkaline phosphatase labeled) was used as the probe, with error bars for duplicate assays indicated.

[3] = tested on: OC-3-VGH, PC-3, A549 and MDA-MB-435 cancer cells; assay: TUNEL apoptosis assay of cultured and treated cancer cells; type: cell-based; conditions: co-incubation 24 to 72 hours, compared on a molar basis, FIGS. 2A and 2B
Method: In order to compare the anti-proliferative effects (or apoptosis) between mGHR106 or hGHR106 and antide on cancer cells, In Situ Cell Death Detection Kit, POD (Roche, Canada) was employed for detection and quantitation of apoptosis of cultured and treated cancer cells in vitro. Briefly cancer cells were cultured in RPMI-1640 medium at 37° C. in a CO2 (5%) incubator for 24 and/or 48 hours until all cancer cells are attached to microwells. Following removal of cell culture medium, fresh serum-free medium was added for an additional 3 hours incubation in a CO2 incubator.
After the serum-free starvation period, the cells were incubated in fresh medium containing 10% fetal calf serum, and hGHR106, mGHR106 or antide of known concentration was added for co-incubation of 24 to 72 hours. As the negative control, normal mouse IgG or normal human IgG of the same concentration was used for the same incubation period.
At the end of incubation, the attached cells were removed from tissue culture wells by appropriate cell detachment solution. Apoptosis of treated cancer cells was quantitatively determined by TUNEL assay with the instructions provided by Cell Death Detection Kit, POD (Roche, Canada). Percent increases of cells with apoptosis after treatments with any one of hGHR106, mGHR106 and antide were obtained by subtracting spontaneous apoptosis from the negative control. […]

OC-3-VGH cancer cells = assay: Comparative gene regulation study in cancer cells; type: cell-based, human; conditions: FIG. 4; upon ligand treatment of cancer cells
Excerpt: Comparative gene regulation upon administration of hGHR106 or the decapeptide GnRH analog antide was examined using conventional protocols, e.g. as described in U.S. Pat. No. 8,361,793. […] Expressions of a number of selected genes involved in the proliferation or survival of cancer cells were compared. The selected genes include: GnRH, GnRHR, P0, P1, P2, L37, and EGF, c-fos, P21 and cyclin D1. P0, P1, P2, and L37 are ribosomal proteins.

[4] = clinically used antibodies and GnRH decapeptide analogs

Compound: Luprorelin
- Estimated Half Life [1, 4]: 3 h

Compound: Mu-P: N1-29 oligopeptide of N-terminal extracellular domain of mouse GnRH receptor, SEQ ID NO:3 (MANSASPEQNQNHCSAINNSIPLMQGNLPT; listed as Homo sapiens)
- competition with mGHR106 binding to OC-3-VGH coated microwells [2]: not
- competition with hGHR106 binding to OC-3-VGH coated microwells [2]: not

Compound: Mo-P: N1-29 oligopeptide of N-terminal extracellular domain of monkey GnRH receptor, SEQ ID NO:2 (MANSALPEQNQNHCSVINNSIPLMQGNLPT; Pan troglodytes)
- competition with mGHR106 binding to OC-3-VGH coated microwells [2]: compete
- competition with hGHR106 binding to OC-3-VGH coated microwells [2]: compete

Compound: antide
- induced apoptosis (percent increase of cells with apoptosis) [3]: very similar degrees of induced apoptosis
- Cyclin D1 expression (OC-3-VGH cancer cells): downregulated
- EGF expression (OC-3-VGH cancer cells): downregulated
- GnRH expression (up-regulation) (OC-3-VGH cancer cells): 50%
- expression of the GnRH receptor (GnRHR) (OC-3-VGH cancer cells): unchanged

Compound: Panitumumab
- Estimated Half Life [1, 4]: 180 h

Compound: CC(=O)N[C@H](Cc1ccc2ccccc2c1)C(=O)N[C@H](Cc1ccc(Cl)cc1)C(=O)N[C@H](Cc1cccnc1)C(=O)N[C@@H](CO)C(=O)N[C@@H](Cc1ccc(O)cc1)C(=O)N[C@H](CCCNC(N)=O)C(=O)N[C@@H](CC(C)C)C(=O)N[C@@H](CCCNC(=N)N)C(=O)N1CCC[C@H]1C(=O)N[C@H](C)C(N)=O [Cetrorelix] (Ac-[d2Nal][dPhe(4-Cl)][d3Pal]SY[dCit]LRP[dA]-NH2)
- Estimated Half Life [1, 4]: 10 to 63 h

Compound: Beracizumab
- Estimated Half Life [1, 4]: 480 h

Compound: Gonadotropin-releasing hormone [Native GnRH]
- Estimated Half Life ([1]; native GnRH): 0.033 to 0.067 h
- half-life in human circulation ([1]; human circulation): 2 to 4 min

Compound: Hu-P: N1-29 oligopeptide of N-terminal extracellular domain of human GnRH receptor, SEQ ID NO:1 (MANNASLEQDPNHCSAINNSIPLIQGKLPT; listed as Mus musculus)
- competition with mGHR106 binding to OC-3-VGH coated microwells [2]: compete
- competition with hGHR106 binding to OC-3-VGH coated microwells [2]: compete
